In patent US4558127A, “5-Fluorouracil nitroxyl derivatives possessing antitumor activity” (priority 1984, dated 1985):
Entries after “also recorded” stand apart in the source; their conditions may differ. Structures can show the parent of a compound that is named as a salt.

Experiments:
adenocarcinoma 755 = experiment: Kinetic curves of tumor volume gain, adenocarcinoma 755 in mice (FIG. 2); conditions: C 57 B1 mice, equimolar single doses 0.2 mmol/kg i/p, daily over 10 days
Protocol: To reveal the antitumor activity and kinetic characteristic of the therapeutic effectiveness of compound (IV) and Ftorafur in the case of adenocarcinoma 755, a series of experiments was conducted on mice C 57 B1. Adenocarcinoma 755 was grafted using a tumor cell suspension in a physiological solution (dilution 1:1 by mass) and was administered hypodermally in the dose of 0.3 ml to each mouse. The test compounds were administered intraperitoneally, starting from the 1-st day after grafting of the tumor, daily over the period of 10 days.
The tumor volume increase (V) of adenocarcinoma 755 was determined in cm^3 for 28 days (.tau.).
In the kinetic curve 5 experimental points corresponding to the control experiment are conventionally shown as circles, while experimental points corresponding to the use of Ftorafur are conventionally shown as squares.

Harding-Passey melanoma = conditions: background art; cited from earlier work
leukemia La [1] = experiment: Antitumor activity on grafted leukemia La in mice (ELS, kinetic criterion, chemotherapeutic index); format: in vivo, mouse; conditions: for Chemotherapeutic index I60 = LD10/ED60 / ELS (extension of average life span) / kinetic criterion (.chi.) = 1-.phi.t/.phi.c: La, C57Bl mice; for Chemotherapeutic index I60 = LD10/ED60: i/p
Source text: (§1) For the determination of antitumor activity these compounds (I, II, III, IV), 5-fluorouracyl and Ftorafur were used in the same solvents as in the determination of toxicity.
(§2) The determination of antitumor activity was effected on grafted tumors of mice: leukemia L-1210, leukemia P-388, Leukemia La, melanoma B-16, adenocarcinoma 755 (Ca-755), as well as on grafted tumors of rats: Schwetz erythroleukosis, Walker carcinosarcoma (WCS), Geren carcinoma.
Leukemia La was grafted intraperitoneally using a suspension of leukemic cells in a physiological solution. The inoculum contained 10^8 of leukemia cells. […]
In the determination of the antitumor activity the test compounds were introduced in equitoxic doses.
(§3) The criterion of the antitumor activity for leukemia P-338, L-1210 and La is the extension of an average life span (ELS) of the test animals as compared to the control ones, expressed in percent and calculated by the formula: [formula] wherein Lt --life span of animals in the test group;
(§4) Lc --life span of animals in the control group, i.e. without administration of the test compounds.
(§5) The comparative assessment of the scope of therapeutic action is effected using chemotherapeutic indices I40, I60 and I100 : I40 =LD10 /ED40, I60 =LD10 /ED60 I100 =LD10 /ED100, where LD10 =dose causing death of 10% of the animals; ED40, ED60 and ED100 are effective doses causing extension of the animal's life span by 40, 60 and 100 percent respectively.

[2] = background art; cited from earlier work
Schwetz erythroleukosis = experiment: Antitumor activity on grafted Schwetz erythroleukosis in rats; format: in vivo, rat; conditions: for Inhibition of tumor volume gain: mongrel rats, days 7-14
Source text: as §1, §2
(§6) In the determination of the antitumor activity the test compounds were introduced in equitoxic doses. Ftorafur was also used in the optimal dose which is equal to […].
(§7) As the criterion of antitumor activity on solid tumors used is the inhibition (I) of the tumor volume gain in comparison with the control, expressed in percent and calculated by the formula: [formula] wherein Vc --average volume of the tumor in the control,
(§8) Vt --average volume of the tumor in the experiment.

[3] = Toxicity (LD50), intraperitoneal administration, mongrel white mice, Burns method; format: in vivo, mouse
Source text: Toxicity of the compounds according to the present invention has been determined on mongrel white mice in experimental intraperitoneal administration of these compounds and evaluated by the Burns method (using curves of accumulation of the animal death frequencies vs. dose).
As the toxicity characteristic use was made of the dose causing death of 50% of the animals employed for the experiment (LD50).
For the determination of toxicity of (1,3-bis-(2,2,5,5-tetramethyl-1-oxyl-Δ^3 -pyrrolin-3-oyl)-5-fluorouracyl(compound I), 1-(2,2,5,5-tetramethyl-1-oxyl-Δ^3 -pyrrolin-3-oyl)-5-fluorouracyl (compound II) and 3-(2,2,5,5-tetramethyl-1-oxyl-Δ^3 -pyrrolin-3-oyl)-5-fluorouracyl (compound III), these compounds were administered intraperitoneally in the form of an emulsion in a 10% aqueous solution of polyoxyethylsorbitan monooleate (Tween-80, Ferak Berlin West Germany).
For the determination of toxicity of sodium salt of 3-(2,2,5,5-tetramethyl-1-oxyl-Δ^3 -pyrrolin-3-oyl)-5-fluorouracyl (compound IV), Ftorafur and 5-fluorouracyl, these compounds were also administered intraperitoneally in the form of aqueous solutions.

[4] = tested on: alveolar carcinoma of liver; conditions: background art; cited from earlier work
Walker carcinosarcoma = conditions: background art; cited from earlier work
sarcoma 180 = conditions: background art; cited from earlier work
melanoma B-16 = experiment: Antitumor activity on grafted melanoma B-16 in mice (inhibition of tumor volume gain); format: in vivo, mouse; conditions: for Inhibition of tumor volume gain: B-16, CBAF1 mice
Source text: as §1, §2, §6, §7, §8

leukemia L-1210 = experiment: Antitumor activity on grafted leukemia L-1210 in mice; format: in vivo, mouse; conditions: for ELS (extension of average life span): control life span 7,5 days
Source text: as §1, §2
Leukemia L-1210 was grafted intraperitoneally, 10^5 cells in 0.2 ml of ascitic liquid.
as §6, §3, §4, §5

Geren carcinoma = experiment: Antitumor activity on grafted Geren carcinoma in rats; format: in vivo, rat; conditions: mongrel rats, single dose 60 mg/kg i/p, days 7-16
Source text: as §1, §2, §6, §7, §8

leukemia La [5] = experiment: Kinetic curves of spleen mass, leukemia La in mice (FIG. 1); format: in vivo, mouse; conditions: equimolar single doses 0.2 mmol/kg i/p
Protocol: Leukemia La was grafted intraperitoneally by means of a suspension of leukemic cells in a physiological solution. The inoculum contained 10^8 of leukemic cells. Compound (IV), Ftorafur and 5-fluorouracyl were also administered intraperitoneally so that the first administration was effected 3 hours after the tumor grafting, and then--on a daily basis over the period of seven days.
Determined were the variations of mass (M) of mice spleen in g over 14 days (.tau.). The obtained data were used to plot a graph in coordinates M-.tau. represented in FIG. 1.

[6] = tested on: adenocarcinoma 755 (Ca-755); experiment: Antitumor activity on grafted adenocarcinoma 755 in mice; format: in vivo, mouse
Source text: as §1, §2, §6, §7, §8

leukemia P-388 = experiment: Antitumor activity on grafted leukemia P-388 in mice; format: in vivo, mouse; conditions: for ELS (extension of average life span): control life span 10 days
Source text: as §1, §2
Leukemia P-388 was grafted intraperitoneally, 10^6 cells in 0.2 ml of ascitic liquid.
as §6, §3, §4, §5

[7] = Stability against hydrolysis; format: physicochemical; conditions: room temperature, pH 3 to 11, about 5 hours
Solubility = format: physicochemical; conditions: water
grafted tumors = experiment: Antitumor activity on grafted tumors, overall assessment; format: in vivo, mice and rats
Source text: as §1, §2, §6, §3
As the criterion of antitumor activity on solid tumors used is the inhibition (I) of the tumor volume gain in comparison with the control, expressed in percent and calculated by the formula: [formula] wherein Vc --average volume of the tumor in the control, […]

[8] = Reaction of aqueous solutions; format: physicochemical
[9] = tested on: Walker carcinosarcoma (WCS); experiment: Antitumor activity on grafted Walker carcinosarcoma in rats; format: in vivo, rat
Source text: as §1, §2, §6, §7, §8

[10] = single dose 45 mg/kg i/p, days 1-6
[11] = Ca-755, C57Bl mice, single dose 65 mg/kg i/p, days 1-10

## O=c1[nH]c(=O)n(C2CCCO2)cc1F (stereo not drawn) [Ftorafur, 1-(α-furanidyl)-5-fluorouracyl, reference compound]
Adenocarcinoma 755
  inhibition of tumor growth, in words: no antitumor activity
Harding-Passey melanoma
  activity in respect of Harding-Passey melanoma: rather high activity
Leukemia La [1]; days 1,5,9
  Chemotherapeutic index I60 = LD10/ED60: 2.0
Leukemia La [1]; [10]
  ELS (extension of average life span): 15%
  kinetic criterion (.chi.) = 1-.phi.t/.phi.c: 0.17
Leukemia La [1]; single dose 300 mg/kg i/p, days 1,5,9
  ELS (extension of average life span): 60%
[2]
  toxicity / side effects in words: inhibits hemopoiesis and causes complications on the side of the gastro-intestinal tract
Schwetz erythroleukosis; single dose 90 mg/kg i/p
  Inhibition of tumor volume gain: 15%
[3]; mouse, in vivo, ip, mice, intraperitoneal, I, II, III as emulsion in 10% aqueous Tween-80, IV, Ftorafur, 5-fluorouracyl as aqueous solutions
  LD50: 640 mg/kg
[4]
  activity in respect of alveolar carcinoma of liver: rather high activity
Walker carcinosarcoma
  activity in respect of Walker carcinosarcoma: rather high activity
Sarcoma 180
  activity in respect of sarcoma 180: rather high activity
Melanoma B-16; single dose 300 mg/kg, days 1,5,9, mode of grafting printed i/p
  Inhibition of tumor volume gain: 10%

## CC1(C)C=C(C(=O)n2c(=O)[nH]cc(F)c2=O)C(C)(C)N1[O] [IV, sodium salt of 3-(2,2,5,5-tetramethyl-1-oxyl-Δ^3-pyrrolin-3-oyl)-5-fluorouracyl]
Adenocarcinoma 755
  inhibition of tumor growth, in words: considerable inhibition of the tumor growth
Leukemia La [1]; days 1,3,5,7,9
  Chemotherapeutic index I60 = LD10/ED60: 4,2
Leukemia La [1]; single dose 75 mg/kg i/p, days 1-7 after grafting
  kinetic criterion (.chi.) = 1-.phi.t/.phi.c: 0,7
Leukemia La [1]; single dose 75 mg/kg i/p, days 1-7 after grafting, control life span 6,5 days
  ELS (extension of average life span): 80%
Leukemia La [1]; single dose 100 mg/kg i/p, days 1,3,5,7,9, control life span 6,5 days
  ELS (extension of average life span): 60%
Leukemia La [1]; leukemia La
  chemotherapeutic index I60 relative to that of 5-fluorouracyl, fold: 1.2 time
  chemotherapeutic index I60 relative to that of Ftorafur, fold: 2 times
  therapeutic effect compared with 5-fluorouracyl, in words: comparable with that of 5-fluorouracyl
Leukemia La [1]; leukemia La, equitoxic doses, comparable treatment schedules
  effectiveness superior to Ftorafur, fold: 5 times
Leukemia L-1210; L-1210, BDF1 mice, i/p, days 1-7
  Chemotherapeutic index I60 = LD10/ED60: 5,6
Leukemia L-1210; L-1210, BDF1 mice, single dose 65 mg/kg i/p, days 1-9
  ELS (extension of average life span): 100%
Leukemia L-1210; L-1210, BDF1 mice, single dose 75 mg/kg i/p, days 1-7
  ELS (extension of average life span): 60%
Leukemia L-1210; mouse, in vivo
  antitumor activity, leukemia L-1210, in words: high antitumor activity
Geren carcinoma
  Inhibition of tumor volume gain: 20%
Leukemia La [5]; C 57 B1 mice, daily over seven days
  inhibition of leukemia La (spleen mass gain), in words: most effective in inhibition of leukemia La
Leukemia La [5]
  activity relative to 5-fluorouracyl (spleen mass gain), in words: by several times superior
Schwetz erythroleukosis; comparable doses and treatment procedures
  effectiveness relative to Ftorafur and 5-fluorouracyl, fold: 2-3 times
Schwetz erythroleukosis; single dose 75 mg/kg i/p
  Inhibition of tumor volume gain: 45%
[6]; [11]
  Inhibition of tumor volume gain: 70%
  kinetic criterion (.chi.) = 1-.phi.t/.phi.c: 0.3
[6]; mouse, in vivo
  antitumor activity, adenocarcinoma 755, in words: considerable antitumor activity
Leukemia P-388; P-388, BDF1 mice, i/p, days 1,3,5,7,9
  Chemotherapeutic index I100 = LD10/ED100: 4,2
Leukemia P-388; P-388, BDF1 mice, single dose 75 mg/kg i/p, days 1-7
  ELS (extension of average life span): 90%
Leukemia P-388; P-388, BDF1 mice, single dose 100 mg/kg i/p, days 1,3,5,7,9
  ELS (extension of average life span): 100%
Leukemia P-388; mouse, in vivo
  antitumor activity, leukemia P-388, in words: high antitumor activity
[3]; general statement
  toxicity in words: low toxicity
[3]; mice, i/p
  toxicity compared with Ftorafur, in words: approach toxicity of Ftorafur
[3]; mice, i/p, relative to 5-fluorouracyl
  less toxic than 5-fluorouracyl, fold: 5 times
[3]; mice, intraperitoneal, I, II, III as emulsion in 10% aqueous Tween-80, IV, Ftorafur, 5-fluorouracyl as aqueous solutions
  Toxicity, LD50: 510 mg/kg
[7]
  stability against hydrolysis: do not undergo any noticeable hydrolytical decomposition
Solubility
  solubility in water: very well soluble in water
Grafted tumors; in vivo
  antileukemic effect, in words: high antileukemic activity
Grafted tumors; solid tumors
  effect on solid tumors, in words: most active; also recorded: high antitumor activity in respect of solid tumors
Melanoma B-16; single dose 75 mg/kg i/p, days 1-10
  Inhibition of tumor volume gain: 30%
Melanoma B-16; melanoma B-16, comparable doses and treatment procedures
  effectiveness relative to Ftorafur, fold: 3 times
[8]
  reaction of aqueous solutions: alkaline reaction
[9]; WCS, mongrel rats, single dose 60 mg/kg i/p, days 1-10
  Inhibition of tumor volume gain: 75%
[9]; rat, in vivo
  antitumor activity, Walker carcinosarcoma, in words: considerable antitumor activity
